Test results: ChEMBL document CHEMBL3507680, “University of Dundee, Gates Library screen for HepG2 cell viability”

Assay: Human HepG2 cell viability assay in 384 well format
Format: toxicity, cell-based
Set-up: dose 125 nL, time 70.5 hour; cytotoxicity at 70.5 h: concentration not given beside the values
Conditions: HepG2 cells, read-out: Inhibition

Structure (SMILES)	cytotoxicity at 70.5 h
CC(C)Nc1ncnc2c1CCN(C(=O)Cc1cccs1)CC2	-7.55%
CN1CCN(Cc2ccncc2)Cc2cccnc21	-9.78%
CN1C(=O)CC(c2cnn(C)c2)C12CCN(C(=O)c1ccno1)CC2 (stereo unspecified)	-12%
COc1cc(N2CC[C@H](O)[C@@H]2Cc2cccnc2)ncn1	-10.8%
Cc1cccc(COC[C@]23COC[C@H]2CN(c2ncccn2)C3)n1	-10.2%
O=C(c1ccnnc1)N1C[C@@H]2COC[C@]2(COCC2CC2)C1	-7.55%
O=C(c1cccs1)N1C[C@H]2CCC[C@@]2(COCC2CCOCC2)C1	23.2%
CNC(=O)[C@@]12CCO[C@@H]1CCN(Cc1c(C)noc1C)C2	-6.35%
CCC1=N[C@@]2(CC[C@@H]3CN(C(=O)NCc4ccccc4C)C[C@@H]32)C(=O)N1	-11.1%
Cc1cnc(C(=O)N2CCC3(CC2)CN(c2ccccn2)CCO3)cn1	-6.44%
CC(C)NC(=O)C1CN(C(=O)NCc2ccccc2)CC12CCOCC2 (stereo unspecified)	1.12%
COCCN1CCC12CCN(C(=O)c1ccc3[nH]ccc3c1)C2 (stereo unspecified)	-7.37%
COCCNC(=O)c1cc2c(c3ccccc3n2C)n1C(=O)N(C)C	-9.07%
O=C(NC1CCC1)C1=NOC2(CCN(Cc3ccc(F)cc3)C2)C1 (stereo unspecified)	14.1%
CCNC(=O)c1c2c(N3CCN(C)CC3)ncnc2n2ccccc12	2.84%
COc1cccc2c1OCC(C(=O)N1CCN(CCS(C)(=O)=O)CC1)C2 (stereo unspecified)	-4.99%
COc1ccccc1-n1nc(CC(C)C)nc1CSc1nnc(N)s1	-15.9%
CN1CCC(Cc2noc(CCc3nc4ccccc4nc3O)n2)CC1	-7.26%
O=C(O)[C@@H]1CN(C2CCCCC2)C[C@H]1C1CC1	-13.9%
CCCc1ccc(CN2CCC3(CC2)CNC(=O)C3)o1	21.8%
CC(C)c1cc(CN(C)C(=O)CN2CCNC2=O)no1	18.6%
OCCN(Cc1ccccc1)Cc1nc(-c2ccc3c(c2)OCO3)no1	-9.5%
O=C(O)c1cc(-c2ccncc2)cc(S(=O)(=O)NCc2ccccn2)c1	-4.27%

Structure (SMILES)	cytotoxicity at 70.5 h
Cc1csc(CNc2nc3c(s2)c(C)nn3C)n1	-4.74%
O=C(NCC(F)F)c1ccc(S(=O)(=O)NCCc2c[nH]cn2)cc1	-6.02%
CCOC(=O)CC1CCCCN1C(=O)c1cc(=O)[nH]c(=O)[nH]1 (stereo unspecified)	11.7%
Cc1ccccc1CN1C[C@@H](CN(C)CCO)[C@@H](CO)C1	-11.6%
COCCC(=O)N1C[C@H]2CC[C@@H]1CN(C1Cc3ccccc3C1)C2	-10%
O=C(C1CCOCC1)N1CC[C@@](O)(c2ccccc2)[C@H]2CCCC[C@@H]21	24.9%
CCC(CO)N(Cc1cccc(-n2cccn2)c1)Cc1cccs1 (stereo unspecified)	-4.44%
COCCN1CCC(CN(Cc2ccncc2)C2CCCCC2)CC1	-6.59%
Cc1nc2c(c(N3CCCOCC3)n1)CCN(c1nccs1)CC2	-6.82%
CC(O)Cc1cn(CC2CCN(c3nccc4occc34)CC2)nn1 (stereo unspecified)	4.74%
O=C(CCCn1cncn1)N1CCCC1c1nc(-c2ccccc2)no1 (stereo unspecified)	-1.82%
COc1cc(N[C@@H](Cc2ccccc2)C(N)=O)ncn1	-5.19%
Fc1cccc(-c2noc3c2CN(Cc2cncn2C2CC2)CC3)c1	-11.3%
CN(C)S(=O)(=O)N1C[C@@H]2CC[C@H](C1)N(CCC(=O)NCc1ccco1)C2	2.74%
CC(C)N1CCOC(CC(=O)N2CCCN(Cc3ccncc3)CC2)C1 (stereo unspecified)	15.7%
CCc1ccc(CN2CCN(C)C3(CCC(=O)N(CC4CC4)CC3)C2)o1 (stereo unspecified)	-1.68%
O=C(CSc1ccccn1)N1CCC(OCc2cccnc2)CC1	-18.6%
COc1nccc(N2CC[C@@H](N3CCN(C)CC3)[C@H](O)C2)c1C#N	-6.47%
COc1ccc(-c2cc(N)ccn2)c(OC)c1OC	-9.71%
CN1CCN(CC(C)(C)C)CC1CCO (stereo unspecified)	-3.64%
Cc1occc1C(=O)N1CCCC1c1ccc(C(=O)N2CCOCC2)s1 (stereo unspecified)	9.73%
COC(C)(C)CNC(=O)C1CCC(=O)N(C2CCCC2)C1 (stereo unspecified)	0.695%
COc1ccc(CN2C[C@@H]3CC[C@H](C2)N(S(C)(=O)=O)C3)cc1	-7.94%

Structure (SMILES)	cytotoxicity at 70.5 h
C/C=C(\C)CN1C[C@@H](NC(=O)c2ccc(O)c(Cl)c2)C[C@H]1C(=O)NCC	-11%
Cc1nccc(N2CCC(=O)N(CC3CC3)C(C(C)C)C2)n1 (stereo unspecified)	-1.5%
Nc1nc(CCCNC(=O)c2ccc(C3CCCNC3)cc2)cs1 (stereo unspecified)	-7.45%
NC(=O)COc1ccc(CN2CCNC(C(=O)NC3CC3)C2)cc1Cl (stereo unspecified)	-10.1%
CCNC(=O)Cn1ncc(N(C)CCc2ccccc2)cc1=O	8.48%
CC(=O)c1cccc(-c2nc3c([nH]2)CCNC3)c1F	-13.2%
CCSCC(C)NCc1cn2ccccc2n1 (stereo unspecified)	-20.2%
CSc1ccc(CN(C(=O)c2cc(=O)[nH]c(=O)[nH]2)C2CC2)cc1	6.51%
O=C1NCCN1CCNc1cc(-c2ccncc2)nc2ccnn12	-10.3%
CC(C)c1nc(CN(C)C(=O)c2ccc(CN3CCCCC3)cc2)cs1	-7.38%
CCOc1ccccc1C(C(=O)O)N(C)CC1CCOCC1 (stereo unspecified)	21.4%
COc1ccc(N2CCN(C(=O)C3CN(C)C(=O)N3)CC2(C)C)cc1 (stereo unspecified)	-8.78%
Cc1nc2c(C)cccc2cc1C(=O)N1CCC2(CC1)NCCNC2=O	-15.8%
Cc1nc2ccccn2c1CN1C[C@@H](CN2CCOCC2)[C@@H](CO)C1	28.6%
CN(CCc1ncnn1-c1ccccc1Cl)C1CCS(=O)(=O)C1 (stereo unspecified)	-17.7%
CS(=O)(=O)Cc1nc(C2CC2)nn1-c1ccccn1	4.03%
CCS(=O)(=O)c1ncc(CN(C)Cc2cccc(OC)c2)n1CCOC	-6.87%
CN1C(=O)CC(C(=O)O)C12CCN(Cc1cc(F)ccc1Cl)CC2 (stereo unspecified)	-9.93%
Cc1ncsc1-c1nc(Cc2cccs2)nn1C1CCN(C)CC1	-4.07%
Cc1ccc(OC2(C(=O)O)CCN(C(=O)c3cccs3)CC2)cn1	17.4%
CCCn1cnnc1CNC1CCCC1	5.01%
CCCc1cc(C(=O)N(CC)Cc2ccncc2)[nH]n1	-7.59%
CC1CN(CCC(=O)NCCc2cccnc2)Cc2ccccc2O1 (stereo unspecified)	9.39%

Structure (SMILES)	cytotoxicity at 70.5 h
CCNC(=O)[C@@H]1C[C@H](NC(=O)c2cncnc2C)CN1Cc1ccsc1	-17%
C[C@H](NC(=O)c1cccc(CCC(C)(C)O)c1)C(N)=O	-0.496%
CN(C)C(=O)c1ccc(C2CCCN2C(=O)c2ccccc2N(C)C)s1 (stereo unspecified)	-1.33%
COC(=O)N1CCC(Oc2ccc(C(=O)NCCN(C)C)cc2Cl)CC1	-8.08%
Cc1nc(CN2CCCC(CCc3ccccc3F)C2)c[nH]1 (stereo unspecified)	1.04%
CC(C)(Cn1cnc(-c2ccccc2)c1-c1ccco1)N1CCOCC1	-10.2%
CCC(NC(=O)c1cnc(N(C)C)nc1C)c1ccncc1 (stereo unspecified)	-6.22%
O=C(NCCC1CN(Cc2c[nH]cn2)CCO1)c1ccccc1O (stereo unspecified)	23%
Cc1ocnc1C(=O)N(Cc1cccnc1)C[C@@H]1CCC(=O)N1	-8.79%
CCOc1ncccc1Cn1cc(-c2cncnc2)nn1	-15.8%
Cc1ccc2ncccc2c1CN1CC[C@H](N(C)C)[C@H](CCC(=O)O)C1	-7.41%
Cc1ccsc1-c1nnc(SCC(=O)O)n1C(C)c1ccccc1 (stereo unspecified)	-5.54%
CCN1CCCCC1C(=O)N1CCc2onc(-c3ccc(Cl)cc3)c2C1 (stereo unspecified)	-12.9%
COc1cccn(CC(=O)N(C)CCSC)c1=O	-12.7%
CCN(Cc1ccc2cccc(O)c2n1)CC1CCCO1 (stereo unspecified)	12.5%
Cc1cc(C)c2c(N3CCCN(C(=O)C4CCC4)CC3)ncnc2n1	-6.75%
CNC(=O)CCN1CCC(c2nnc(Cn3cccn3)n2C2CC2)CC1	-8.33%
Oc1ccccc1N1CCN(c2ncnc3sc4c(c23)CCNC4)CC1	2.19%
CCn1c(-c2ccccc2)nn(CC(=O)NCCc2ccc(C)s2)c1=O	13.9%
OC1(CN2CCC(Oc3cccnc3)CC2)CNCCOC1 (stereo unspecified)	-7.48%
COC(=O)N1CCC2(CC1)N=C(CCC(C)C)NC2=O	-8.4%
O=C(CCC1CCN(C(=O)c2cnco2)CC1)NCc1cccc(Cl)c1	-5.59%
CC(=O)N[C@@H](CC(C)C)C(=O)N1CCC(n2cc(CO)nn2)CC1	-4.38%

Structure (SMILES)	cytotoxicity at 70.5 h
COc1ccc(-c2ccccc2CCN)c(OC)c1	-10.1%
Cc1cnccc1NCCNC(=O)C1CCCN(Cc2ccco2)C1 (stereo unspecified)	9.92%
COCc1ccc(C(=O)N2CCc3c(ncnc3N3CCOCC3)C2)o1	-4.54%
COc1cc(C)c(C2CC(=O)Nc3cc(NS(C)(=O)=O)ccc32)cc1C (stereo unspecified)	0.99%
CCCc1nnc2sc(C3CCN(CCOC)CC3)nn12	-3.34%
Cc1noc(C)c1CN1CC[C@H]2OCC[C@@]2(C(=O)N2CCCC2)C1	-5.9%
Cc1noc(C)c1CN1CC[C@H]2OCC[C@@]2(C(=O)N2CCOCC2)C1	-4.59%
c1cn2c(n1)CN(Cc1ccsc1)CC(Cn1cncn1)C2 (stereo unspecified)	-11.2%
Cc1noc(C)c1CN1CC[C@H]2OCC[C@@]2(C(=O)NCC2CC2)C1	-5.64%
COCCNC(=O)[C@@]12CCO[C@@H]1CCN(Cc1cc(C)on1)C2	7.02%
CC(C)N1CCO[C@H]2CN(C(=O)c3ccsc3)C[C@H]21	-7.23%
O=C(c1cccc(F)c1)N1CCC2(CC1)CN(c1ccccn1)CCO2	-8.22%
CCOCC1CN(Cc2cccs2)Cc2nn(C)cc21 (stereo unspecified)	-6.21%
COc1cc(N2C[C@@H]3COC[C@]3(COc3ncccc3F)C2)ncn1	-9.91%
Cc1ccc2c(n1)N(Cc1ccncc1)CCN(S(C)(=O)=O)C2	-10%
c1cncc(-c2nnn3c2COCC(CNC2CCOCC2)C3)c1 (stereo unspecified)	12.3%
c1cncc(-c2nnn3c2COCC(CNCC2CCOCC2)C3)c1 (stereo unspecified)	8.92%
Cc1ccc2c(n1)N(Cc1cccnc1)CCN(C1CCOCC1)C2	2.27%
CN(Cc1ccncc1)C1COC2(CCN(Cc3nccn3C)CC2)C1 (stereo unspecified)	-8.93%
